In patent US12077503B2, “Substituted cyclic amides and their use as herbicides” (FMC CORPORATION, priority 2015, dated 2024):

Columns and labels:
Format in all cases: in vivo
[1] = tested on: barnyardgrass (Echinochloa crus-galli); test: Test A postemergence; details: postemergence; for Barnyardgrass plant response rating: 125 g ai/ha, visual injury rating on 0 to 100 scale (0 no effect, 100 complete control), approx. 10 d; for Plant response rating, Barnyardgrass: 500 g ai/ha, 0 to 100 scale, 0 no effect, 100 complete control
Procedure, shortened: (§1)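 Seeded soil received test chemicals as a preemergence directed spray, and seedlings at one to two leaves, 2–10 cm tall, received them postemergence, in a non-phytotoxic, surfactant-containing solvent mixture. Pots were held in a greenhouse for approximately 10 d, then rated for injury from 0, no effect, to 100, complete control.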

[2] = tested on: Galium (catchweed bedstraw, Galium aparine); test: Test A postemergence; details: postemergence; for Galium plant response rating: 125 g ai/ha, visual injury rating on 0 to 100 scale (0 no effect, 100 complete control), approx. 10 d; for Plant response rating, Galium: 500 g ai/ha, 0 to 100 scale, 0 no effect, 100 complete control
Procedure, shortened: as §1

[3] = tested on: pigweed (Amaranthus retroflexus); test: Test A postemergence; details: postemergence; for Pigweed plant response rating: 125 g ai/ha, visual injury rating on 0 to 100 scale (0 no effect, 100 complete control), approx. 10 d; for Plant response rating, Pigweed: 500 g ai/ha, 0 to 100 scale, 0 no effect, 100 complete control
Procedure, shortened: as §1

[4] = tested on: Kochia (Kochia scoparia); test: Test A postemergence; details: postemergence; for Kochia plant response rating: 125 g ai/ha, visual injury rating on 0 to 100 scale (0 no effect, 100 complete control), approx. 10 d; for Plant response rating, Kochia: 500 g ai/ha, 0 to 100 scale, 0 no effect, 100 complete control
Procedure, shortened: as §1

[5] = tested on: wheat (Triticum aestivum); test: Test A postemergence; details: postemergence; for Wheat plant response rating: 125 g ai/ha, visual injury rating on 0 to 100 scale (0 no effect, 100 complete control), approx. 10 d; for Plant response rating, Wheat: 500 g ai/ha, 0 to 100 scale, 0 no effect, 100 complete control
Procedure, shortened: as §1

[6] = tested on: ragweed (common ragweed, Ambrosia elatior); test: Test A postemergence; details: postemergence; for Ragweed plant response rating: 125 g ai/ha, visual injury rating on 0 to 100 scale (0 no effect, 100 complete control), approx. 10 d; for Plant response rating, Ragweed: 500 g ai/ha, 0 to 100 scale, 0 no effect, 100 complete control
Procedure, shortened: as §1

[7] = tested on: ryegrass, Italian (Italian ryegrass, Lolium multiflorum); test: Test A postemergence; details: postemergence; for Ryegrass, Italian plant response rating: 125 g ai/ha, visual injury rating on 0 to 100 scale (0 no effect, 100 complete control), approx. 10 d; for Plant response rating, Ryegrass, Italian: 500 g ai/ha, 0 to 100 scale, 0 no effect, 100 complete control
Procedure, shortened: as §1

[8] = tested on: corn (Zea mays); test: Test A postemergence; details: postemergence; for Corn plant response rating: 125 g ai/ha, visual injury rating on 0 to 100 scale (0 no effect, 100 complete control), approx. 10 d; for Plant response rating, Corn: 500 g ai/ha, 0 to 100 scale, 0 no effect, 100 complete control
Procedure, shortened: as §1

[9] = tested on: giant foxtail (Setaria faberii); test: Test A postemergence; details: postemergence; for Foxtail, Giant plant response rating: 125 g ai/ha, visual injury rating on 0 to 100 scale (0 no effect, 100 complete control), approx. 10 d; for Plant response rating, Foxtail, Giant: 500 g ai/ha, 0 to 100 scale, 0 no effect, 100 complete control
Procedure, shortened: as §1

[10] = tested on: blackgrass (Alopecurus myosuroides); test: Test A postemergence; details: postemergence; for Blackgrass plant response rating: 125 g ai/ha, visual injury rating on 0 to 100 scale (0 no effect, 100 complete control), approx. 10 d; for Plant response rating, Blackgrass: 500 g ai/ha, 0 to 100 scale, 0 no effect, 100 complete control
Procedure, shortened: as §1

[11] = tested on: barnyardgrass (Echinochloa crus-galli); test: Test B flooded paddy test; details: Flood, 500 g ai/ha; 0 to 100 scale where 0 is no effect and 100 is complete control; 13 to 15 d
Procedure, shortened: (§2)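 Greenhouse paddy pots with 2-leaf stage plants received compound by direct addition to floodwater 3 cm deep, kept at that level. Scored visually at 13–15 d versus controls (0 no effect; 100 complete control).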

[12] = tested on: ducksalad (Heteranthera limosa); test: Test B flooded paddy test; details: Flood, 500 g ai/ha; 0 to 100 scale where 0 is no effect and 100 is complete control; 13 to 15 d
Procedure, shortened: as §2

[13] = tested on: rice (Oryra sativa); test: Test B flooded paddy test; details: Flood, 500 g ai/ha; 0 to 100 scale where 0 is no effect and 100 is complete control; 13 to 15 d
Procedure, shortened: as §2

[14] = tested on: sedge, umbrella (small-flower umbrella sedge, Cyperus difformis); test: Test B flooded paddy test; details: Flood, 500 g ai/ha; 0 to 100 scale where 0 is no effect and 100 is complete control; 13 to 15 d
Procedure, shortened: as §2

[15] = tested on: barnyardgrass (Echinochloa crus-galli); test: Test A preemergence; details: for Plant response rating, Barnyardgrass: 125 g ai/ha, preemergence, 0 to 100 scale (0 no effect, 100 complete control); for Barnyardgrass plant response rating (0 to 100 scale, 0 is no effect, 100 is complete control): Preemergence, 500 g ai/ha, visual injury approx. 10 d
Procedure, shortened: as §1

[16] = tested on: pigweed (Amaranthus retroflexus); test: Test A preemergence; details: for Plant response rating, Pigweed: 125 g ai/ha, preemergence, 0 to 100 scale (0 no effect, 100 complete control); for Pigweed plant response rating (0 to 100 scale, 0 is no effect, 100 is complete control): Preemergence, 500 g ai/ha, visual injury approx. 10 d
[17] = tested on: Kochia (Kochia scoparia); test: Test A preemergence; details: for Plant response rating, Kochia: 125 g ai/ha, preemergence, 0 to 100 scale (0 no effect, 100 complete control); for Kochia plant response rating (0 to 100 scale, 0 is no effect, 100 is complete control): Preemergence, 500 g ai/ha, visual injury approx. 10 d
Procedure, shortened: as §1

[18] = tested on: ragweed (common ragweed, Ambrosia elatior); test: Test A preemergence; details: for Plant response rating, Ragweed: 125 g ai/ha, preemergence, 0 to 100 scale (0 no effect, 100 complete control); for Ragweed plant response rating (0 to 100 scale, 0 is no effect, 100 is complete control): Preemergence, 500 g ai/ha, visual injury approx. 10 d
Procedure, shortened: as §1

[19] = tested on: ryegrass, Italian (Italian ryegrass, Lolium multiflorum); test: Test A preemergence; details: for Plant response rating, Ryegrass, Italian: 125 g ai/ha, preemergence, 0 to 100 scale (0 no effect, 100 complete control); for Ryegrass, Italian plant response rating (0 to 100 scale, 0 is no effect, 100 is complete control): Preemergence, 500 g ai/ha, visual injury approx. 10 d
Procedure, shortened: as §1

[20] = tested on: giant foxtail (Setaria faberii); test: Test A preemergence; details: for Plant response rating, Foxtail, Giant: 125 g ai/ha, preemergence, 0 to 100 scale (0 no effect, 100 complete control); for Foxtail, Giant plant response rating (0 to 100 scale, 0 is no effect, 100 is complete control): Preemergence, 500 g ai/ha, visual injury approx. 10 d
Procedure, shortened: as §1

Compound | Barnyardgrass plant response rating [1] | Plant response rating, Barnyardgrass [1] | Galium plant response rating [2] | Plant response rating, Galium [2] | Pigweed plant response rating [3] | Plant response rating, Pigweed [3] | Kochia plant response rating [4] | Plant response rating, Kochia [4] | Wheat plant response rating [5] | Plant response rating, Wheat [5] | Ragweed plant response rating [6] | Plant response rating, Ragweed [6] | Ryegrass, Italian plant response rating [7] | Plant response rating, Ryegrass, Italian [7] | Corn plant response rating [8] | Plant response rating, Corn [8] | Foxtail, Giant plant response rating [9] | Plant response rating, Foxtail, Giant [9] | Blackgrass plant response rating [10] | Plant response rating, Blackgrass [10] | other results
COc1c(F)ccc(NC(=O)C2C(=O)NCC2c2ccc(F)c(F)c2)c1F (stereo not drawn) [Compound 419] | 60 | 80 | 0 | 0 | 0 | 0 | 20 | 20 | 0 | 20 | 0 | 0 | 0 | 20 | 0 | 20 | 20 | 90 | 0 | 0 | Plant response rating, Barnyardgrass [11]: 40; Plant response rating, Ducksalad [12]: 50; Plant response rating, Rice [13]: 0; Plant response rating, Sedge, Umbrella [14]: 0; Plant response rating, Barnyardgrass [15]: 60; Barnyardgrass plant response rating (0 to 100 scale, 0 is no effect, 100 is complete control) [15]: 90; Plant response rating, Pigweed [16]: 0; Pigweed plant response rating (0 to 100 scale, 0 is no effect, 100 is complete control) [16]: 20; Plant response rating, Kochia [17]: 0; Kochia plant response rating (0 to 100 scale, 0 is no effect, 100 is complete control) [17]: 0; Plant response rating, Ragweed [18]: 0; Ragweed plant response rating (0 to 100 scale, 0 is no effect, 100 is complete control) [18]: 0; Plant response rating, Ryegrass, Italian [19]: 0; Ryegrass, Italian plant response rating (0 to 100 scale, 0 is no effect, 100 is complete control) [19]: 0; Plant response rating, Foxtail, Giant [20]: 80; Foxtail, Giant plant response rating (0 to 100 scale, 0 is no effect, 100 is complete control) [20]: 90
Cc1ccc(F)c(NC(=O)C2C(=O)NCC2c2cccc(OC(F)F)c2)c1 (stereo not drawn) [Compound 423] | 0 | 0 | 0 | 0 | 0 | 0 | 0 | 0 | 0 | 0 | 0 | 0 | 0 | 0 | 0 | 0 | 0 | 0 | 0 | 0 | Plant response rating, Barnyardgrass [11]: 0; Plant response rating, Ducksalad [12]: 20; Plant response rating, Rice [13]: 0; Plant response rating, Sedge, Umbrella [14]: 0; Plant response rating, Barnyardgrass [15]: 0; Barnyardgrass plant response rating (0 to 100 scale, 0 is no effect, 100 is complete control) [15]: 0; Plant response rating, Pigweed [16]: 0; Pigweed plant response rating (0 to 100 scale, 0 is no effect, 100 is complete control) [16]: 0; Plant response rating, Kochia [17]: 0; Kochia plant response rating (0 to 100 scale, 0 is no effect, 100 is complete control) [17]: 0; Plant response rating, Ragweed [18]: 0; Ragweed plant response rating (0 to 100 scale, 0 is no effect, 100 is complete control) [18]: 0; Plant response rating, Ryegrass, Italian [19]: 0; Ryegrass, Italian plant response rating (0 to 100 scale, 0 is no effect, 100 is complete control) [19]: 0; Plant response rating, Foxtail, Giant [20]: 0; Foxtail, Giant plant response rating (0 to 100 scale, 0 is no effect, 100 is complete control) [20]: 0
Cc1cc(NC(=O)C2C(=O)NCC2c2cccc(OC(F)F)c2)ccc1F (stereo not drawn) [Compound 424] | 50 | 70 | 0 | 0 | 0 | 0 | 0 | 0 | 0 | 0 | 0 | 0 | 0 | 0 | 0 | 0 | 40 | 70 | 0 | 0 | Plant response rating, Barnyardgrass [11]: 0; Plant response rating, Ducksalad [12]: 30; Plant response rating, Rice [13]: 0; Plant response rating, Sedge, Umbrella [14]: 0; Plant response rating, Barnyardgrass [15]: 30; Barnyardgrass plant response rating (0 to 100 scale, 0 is no effect, 100 is complete control) [15]: 90; Plant response rating, Pigweed [16]: 0; Pigweed plant response rating (0 to 100 scale, 0 is no effect, 100 is complete control) [16]: 0; Plant response rating, Kochia [17]: 0; Kochia plant response rating (0 to 100 scale, 0 is no effect, 100 is complete control) [17]: 0; Plant response rating, Ragweed [18]: 0; Ragweed plant response rating (0 to 100 scale, 0 is no effect, 100 is complete control) [18]: 0; Plant response rating, Ryegrass, Italian [19]: 0; Ryegrass, Italian plant response rating (0 to 100 scale, 0 is no effect, 100 is complete control) [19]: 0; Plant response rating, Foxtail, Giant [20]: 70; Foxtail, Giant plant response rating (0 to 100 scale, 0 is no effect, 100 is complete control) [20]: 90
